Laboratory results reported in US5585374A, “Amide derivatives” (John Wyeth Brother, Limited, priority 1992, dated 1996).

Tests used:
5-HT1A receptor [1] = molecular target: T1, 5-HT1A receptor (Rattus norvegicus, UniProt P19327); assay: 5-HT1A receptor binding activity in rat hippocampal membrane homogenate
T1 construct: rat hippocampal membrane homogenate; from tissue; host or cells: rat hippocampus (membrane homogenate)
T1 sequence (P19327 1-422): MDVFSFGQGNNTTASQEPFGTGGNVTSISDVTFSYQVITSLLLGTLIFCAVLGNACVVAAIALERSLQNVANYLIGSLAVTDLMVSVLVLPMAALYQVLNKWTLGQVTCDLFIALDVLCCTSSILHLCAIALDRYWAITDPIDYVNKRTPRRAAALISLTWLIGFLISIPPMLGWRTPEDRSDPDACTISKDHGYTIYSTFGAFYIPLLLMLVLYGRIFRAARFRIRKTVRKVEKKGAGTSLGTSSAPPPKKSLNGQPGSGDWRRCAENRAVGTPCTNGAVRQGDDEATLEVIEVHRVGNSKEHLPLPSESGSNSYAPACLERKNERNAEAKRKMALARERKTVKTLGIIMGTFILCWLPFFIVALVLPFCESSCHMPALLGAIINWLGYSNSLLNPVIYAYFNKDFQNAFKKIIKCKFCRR
Protocol: The compounds of the invention are tested for 5-HT1A receptor binding activity in rat hippocampal membrane homogenate by the method of B S Alexander and M D Wood, J Pharm Pharmacol, 1988, 40, 888-891.

5-HT1A receptor [2] = molecular target: T2, 5-HT1A receptor (Cavia porcellus, UniProt A0A286Y074); assay: 5-HT1A receptor antagonism: antagonism of 5-carboxamidotryptamine in guinea-pig ileum in vitro; details: read-out: pA2 (converted)
T2 construct: in the guinea-pig ileum in vitro; from tissue; host or cells: guinea-pig ileum
T2 sequence (A0A286Y074 1-421): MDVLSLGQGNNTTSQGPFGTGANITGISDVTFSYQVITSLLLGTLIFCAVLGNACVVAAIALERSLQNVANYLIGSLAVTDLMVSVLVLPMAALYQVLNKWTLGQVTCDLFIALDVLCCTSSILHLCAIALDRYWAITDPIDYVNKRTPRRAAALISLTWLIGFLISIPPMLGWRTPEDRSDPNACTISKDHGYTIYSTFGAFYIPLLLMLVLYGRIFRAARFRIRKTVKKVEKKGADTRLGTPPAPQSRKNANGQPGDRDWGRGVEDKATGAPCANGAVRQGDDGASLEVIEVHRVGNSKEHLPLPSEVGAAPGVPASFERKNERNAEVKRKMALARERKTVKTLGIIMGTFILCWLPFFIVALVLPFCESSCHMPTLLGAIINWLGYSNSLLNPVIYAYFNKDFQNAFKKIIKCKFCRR
Protocol: The compounds are tested for 5-HT1A receptor antagonism activity in a test involving the antagonism of 5-carboxamidotryptamine in the guinea-pig ileum in vitro (based upon the procedure of Fozard et al, Br J Pharmac, 1985, 86, 601 P).

α1 sites = assay: affinity for α1 sites (procedure of Marrow et al.); assay type: binding

| IC50 (5-HT1A receptor [1]) | Kb (5-HT1A receptor [2]) | IC50 (α1 sites) | Structure (SMILES) |
| --- | --- | --- | --- |
| 1.2 nM | 0.794 nM | 1080 nM | COc1ccccc1C1CCN(CCC(C(=O)N2CCCCCC2)c2ccccc2)CC1 (stereo not drawn) [2,3,4,5,6,7-hexahydro-1-(4-(1-(1,2,3,4,5,6-hexahydro-4-(2-methoxyphenyl)pyridyl))-2-phenylbutyryl)-1H-azepine] |
| 0.2 nM | 1 nM | 250 nM | COc1ccccc1C1CCN(CCC(C(=O)N2CCCCCC2)c2ccccc2)CC1 (single isomer, unassigned; (+)) [(+)-enantiomer] |
